# According to patent US20030220524A1, “Sulfur containing compounds” (priority 2000, published 2003):
# Where two headings read alike, the source gives them in different places.
# What was measured:
# Format in all cases: cell-based, human
# B1 leukemic cell line [1] = assay: MTT assay; conditions: 48 h, read-out: MTT50
# Method: (§1) All cell lines were assayed as asynchronously growing cells. Leukemic cell lines, OCI-AML-2, OCI-AML-3 (referred to hereafter as AML-2 and AML-3, respectively), NB-4, KK, B1, G2, and W1 were cultured in alpha-minimal essential medium (α-MEM) (Princess Margaret Hospital Media Services) supplemented with 10% fetal bovine serum (FBS) (Sigma, St. Louis, Mo.). Non-transformed, diploid fibroblast lines WI38 and IMR90, were cultured in α-MEM and MEM F-15, respectively supplemented with 10% FBS. Media for IMR90 cells was also supplemented with 1.5 g/L bicarbonate and 1 mM pyruvate. Breast tumour cell lines, MDA-231, SK-BR-3, MCF-7, ZR-751, and melanoma tumour cell lines, WM9, WM983, WM793, 1232, were grown in α-MEM supplemented with 10% fetal bovine serum. Prostate tumour cell lines, DU145 and PC-3, were grown in RPMI 1640 media supplemented with 10% FBS. All cell lines were cultured in the presence of penicillin/streptomycin. Mononucleated cells were isolated from normal bone marrow using Ficoll hypaque and then T-cell depleted. T-cell depletion was performed by incubating the mononucleated bone marrow cells in α-MEM at a concentration of 2×10^7 cells/mL with 10% absor FBS and 10% (v/v) sheep red blood cells for 4 to 16 h. Absor FBS was prepared beforehand by heating FBS at 56° C. for 1 h, incubating with sheep red blood cells at 0.5% (v/v) for 1 h and then filtering the FBS with a […]. The T-cell depleted, mononucleated cells were recovered using Ficoll hypaque and were maintained in α-MEM supplemented with 20% FBS and 10% 5637 ? nditioned media. 5637 conditioned media ? s previously harvested from confluent 5637 cells after a 3 day incubation. Normal bone marrow from bone marrow transplant donor was collected following informed consent according to institutional guidelines.
# (§2) Approximately 20 mg of each compound was dissolved in 5 mL of ACS grade acetone (Sigma) using a 5 mL volumetric flask. Stock solutions of the compounds were stored in the dark at −20° C. Compounds were diluted prior to each experiment.
# (§3) Adherent cells were seeded at 67×10^3 cells/mL in a 96 well plate (Falcon, Mississauga, Ontario) the day prior to exposure to compound. Suspension cells were seeded at 27×10^4 cells/mL in a 96 well plate the day of exposure to compound. Mononucleated, T-cell depleted normal bone marrow cells were seeded at 67×10^4 cells/mL in a 96 well plate the day of exposure to compound. Compounds and solvent control were added to cells and assayed in triplicate or sextuplet. Following 48 h of incubation at 37° C. with 5% CO2, 40 μL of a 5 mg/mL solution of 3-[4,5-dimethylthiazol-2-yl]-2,5-diphenyltetrazolium bromide (MTT) substrate (Sigma) in Dulbecco's phosphate-buffered saline (D-PBS) was added. After 4 h of incubation at 37° C. with 5% CO2, the resulting violet formazan precipitate was solubilized by the addition of 80 μL of a 0.01 M HCI, 10% sodium dodecyl sulfate (SDS; Sigma) solution overnight at 37° C. with 5% CO2. The plates were then analyzed using the BioRad Benchmark Microplate Reader (BioRad Laboratories, Hercules, Calif.) at 570 nm to determine the optical density of the samples. MTT data was analyzed using Prism 3.0 (GraphPad Software, Inc., San Diego, Calif.) by the Chou-Talalay method. MTT graphs shown are a representative experiment.
# (§4) Adherent cells were seeded at 67×10^3 cells/mL in a 96 well plate (Falcon, Mississauga, Ontario) the day prior to exposure to compound. Suspension cells were seeded at 27×10^4 cells/mL in a 96 well plate the day of exposure to compound. Mononucleated, T-cell depleted normal bone marrow cells were seeded at 67×10^4 cells/mL in a 96 well plate the day of exposure to compound. Compounds and solvent control were added to cells and assayed in triplicate or sextuplet. […]
# NB-4 leukemic cell line = assay: MTT assay; conditions: 48 h, read-out: MTT50
# Method: as §1, §2, §3, §4
# B1 leukemic cell line [2] = assay: Fixed propidium iodide staining, flow cytometry; conditions: 48 h
# G2 leukemic cell line [3] = assay: Fixed propidium iodide staining, flow cytometry; conditions: 48 h
# W1 leukemic cell line [4] = assay: Fixed propidium iodide staining, flow cytometry; conditions: 48 h
# G2 leukemic cell line [5] = assay: MTT assay; conditions: Homo sapiens, 48 h, read-out: MTT50
# Method: as §1, §2, §3, §4
# W1 leukemic cell line [6] = assay: MTT assay; conditions: 48 h, read-out: MTT50
# Method: as §1, §2, §3, §4
# AML-2 leukemic cell line = assay: MTT assay; conditions: 48 h, read-out: MTT50
# Method: as §1, §2, §3, §4
structure (smiles),measurement,setting,value
"CSCSSC [Compound N, 2,3,5-trithiahexane]",IC50,B1 leukemic cell line [1]; Homo sapiens,94.4 µM
same,IC50,NB-4 leukemic cell line; Homo sapiens,60.8 µM
same,% G2 increase (Fixed PI),B1 leukemic cell line [2]; dose 50 uM,+2%
same,% G2 increase (Fixed PI),B1 leukemic cell line [2]; dose 150 uM,−1%
same,% pre-G1 (Fixed PI),B1 leukemic cell line [2]; dose 150 uM,35%
same,% G2 increase (Fixed PI),G2 leukemic cell line [3]; dose 50 uM,+8%
same,% pre-G1 (Fixed PI),G2 leukemic cell line [3]; dose 50 uM,16%
same,% G2 increase (Fixed PI),G2 leukemic cell line [3]; dose 150 uM,+8%
same,% pre-G1 (Fixed PI),G2 leukemic cell line [3]; dose 150 uM,29%
same,% G2 increase (Fixed PI),W1 leukemic cell line [4]; dose 50 uM,+10%
same,% pre-G1 (Fixed PI),W1 leukemic cell line [4]; dose 50 uM,22%
same,% pre-G1 (Fixed PI),W1 leukemic cell line [4]; dose 150 uM,33%
"CCC(=O)OCSSc1ccccc1 [Compound Q, 1-phenyl-1,2-dithiapropyl propionate]",IC50,"B1 leukemic cell line [1]; Homo sapiens, B1",14.3 µM
same,IC50,G2 leukemic cell line [5],14.7 µM
same,IC50,W1 leukemic cell line [6]; Homo sapiens,13 µM
same,% G2 increase (Fixed PI),B1 leukemic cell line [2]; dose 20 uM,0%
same,% pre-G1 (Fixed PI),B1 leukemic cell line [2]; dose 20 uM,5%
same,% G2 increase (Fixed PI),B1 leukemic cell line [2]; dose 40 uM,−3%
same,% pre-G1 (Fixed PI),B1 leukemic cell line [2]; dose 40 uM,20%
same,% G2 increase (Fixed PI),G2 leukemic cell line [3]; dose 20 uM,−1%
same,% pre-G1 (Fixed PI),G2 leukemic cell line [3]; dose 20 uM,31%
same,% G2 increase (Fixed PI),G2 leukemic cell line [3]; dose 40 uM,−3%
same,% pre-G1 (Fixed PI),G2 leukemic cell line [3]; dose 40 uM,55%
same,% G2 increase (Fixed PI),W1 leukemic cell line [4]; dose 20 uM,+4%
same,% pre-G1 (Fixed PI),W1 leukemic cell line [4]; dose 20 uM,20%
same,% G2 increase (Fixed PI),W1 leukemic cell line [4]; dose 40 uM,+12%
same,% pre-G1 (Fixed PI),W1 leukemic cell line [4]; dose 40 uM,49%
"CSSCC(=O)c1ccccc1 [Compound P, phenacyl methyl disulphide]",IC50,"B1 leukemic cell line [1]; Homo sapiens, B1",94.4 µM
same,IC50,"NB-4 leukemic cell line; Homo sapiens, NB-4",60.8 µM
same,% pre-G1 (Fixed PI),B1 leukemic cell line [2]; dose 50 uM,52%
same,% pre-G1 (Fixed PI),B1 leukemic cell line [2]; dose 150 uM,80%
same,% pre-G1 (Fixed PI),G2 leukemic cell line [3]; dose 50 uM,6%
same,% pre-G1 (Fixed PI),G2 leukemic cell line [3]; dose 150 uM,63%
same,% pre-G1 (Fixed PI),W1 leukemic cell line [4]; dose 50 uM,14%
same,% pre-G1 (Fixed PI),W1 leukemic cell line [4]; dose 150 uM,55%
"CSSc1ccc([N+](=O)[O-])cc1 [M, methyl p-nitrophenyl disulphide]",IC50,"B1 leukemic cell line [1]; Homo sapiens, B1",12.7 µM
same,IC50,G2 leukemic cell line [5],11.3 µM
same,IC50,"NB-4 leukemic cell line; Homo sapiens, NB-4",21.2 µM
same,IC50,W1 leukemic cell line [6]; Homo sapiens,4.8 µM
same,% pre-G1 (Fixed PI),B1 leukemic cell line [2]; dose 20 uM,70%
same,% pre-G1 (Fixed PI),B1 leukemic cell line [2]; dose 40 uM,76%
same,% pre-G1 (Fixed PI),G2 leukemic cell line [3]; dose 20 uM,10%
same,% pre-G1 (Fixed PI),G2 leukemic cell line [3]; dose 40 uM,43%
same,% pre-G1 (Fixed PI),W1 leukemic cell line [4]; dose 20 uM,9%
same,% pre-G1 (Fixed PI),W1 leukemic cell line [4]; dose 40 uM,28%
"CSSCCS(C)(=O)=O [F, 2,3,6-trithiaheptane 6,6,-dioxide]",IC50,AML-2 leukemic cell line,37.6 µM
"CSSCS(=O)(=O)c1ccc(C)cc1 [Compound C, α-p-toluenesulfonyl dimethyl disulphide]",IC50,AML-2 leukemic cell line,13.2 µM
same,IC50,B1 leukemic cell line [1]; B1,13 µM
same,IC50,NB-4 leukemic cell line; NB-4,11.7 µM
same,IC50,W1 leukemic cell line [6],8.7 µM
"CS(=O)(=O)CSSc1ccccc1 [E, 5-phenyl-2,4,5-trithiapentane 2,2-dioxide]",IC50,AML-2 leukemic cell line; Homo sapiens,15.6 µM
same,IC50,"B1 leukemic cell line [1]; Homo sapiens, B1",4.3 µM
same,IC50,G2 leukemic cell line [5],3.6 µM
same,IC50,"NB-4 leukemic cell line; Homo sapiens, NB-4",25.4 µM
